Test results: patent publication US20190072541A1, “BIOMARKERS FOR TREATMENT OF ALOPECIA AREATA” (THE TRUSTEES OF COLUMBIA UNIVERSITY IN THE CITY OF NEW YORK, priority 2015, published 2019)

Experiments:
[1] = tested on: patients with moderate to severe AA; experiment: Oral ruxolitinib in three patients with moderate to severe AA (hair regrowth, biopsies); type: in vivo, human
Description: Skin punch biopsies (4 mm) were obtained at baseline and after 12 weeks of treatment.
For immunohistochemical studies of human skin, 5 μM formalin fixed and paraffin skin section were used. […] ImmPRESS HRP Anti Rabbit Ig or Mouse Ig (Peroxidase) Polymer (Vector Lab) were used as secondary antibody.
The IFN and CTL signatures were used to develop a bivariate score statistic. Individual signature IFN and CTL scores were determined following procedures used in human SLE. The sets of genes selected to comprise the IFN and CTL signatures were CD8A, GZMB, and ICOS for the CTL signature, and CXCL9, CXCL10, CXCL11, STAT1, and MX1 for the IFN signature.

[2] = tested on: ALADIN CTL, IFN and KRT signatures; experiment: Skin biopsy gene expression / ALADIN scores in ruxolitinib trial; type: in vivo, human
From the text: Biopsies and peripheral blood were obtained at baseline and after 12 weeks for immune monitoring and molecular studies. Several patients provided additional biopsies at intermediate time points during the course of treatment, and one patient provided an additional sample at week 24. Tissues specimens were fixed and stored in PAXgene Tissue Containers. Total RNA was extracted from skin biopsy specimens harvested during the course of the clinical trial using the PAXgene tissue miRNA kit. Library prep was performed for microarray analysis using Ovation RNA Amplification System V2 and Biotin Encore kits (NuGen Technologies, Inc., San Carlos, Calif.). Samples were subsequently hybridized to Human Genome U133 Plus 2.0 chips (Affymetrix, Santa Clara, Calif.) and scanned at the Yale Center for Genome Analysis. Library prep and microarray hybridization of RNA extracted from skin biopsies from three healthy controls were performed together with the samples from the treated patients for a total of 31 samples. Gene expression analyses included calculation of ALADIN scores, differential expression analysis of the expression levels for the identification of gene expression signatures, principal component analysis, and statistical analysis of the ALADIN scores. Microarray data from the 31 samples have been deposited in GEO under accession number GSE80342.
ALADIN scores were calculated for all […] using the batch corrected expression data. The CTL, IFN, and KRT ALADIN scores were determined following procedures outlined previously. Briefly, z-scores are calculated for each PSID relative to the mean and standard deviation of normal controls. Scores for each gene are obtained by averaging z-scores of PSIDs mapping to that gene. Signature scores are then calculated averages of the scores for genes belonging to the corresponding signature.
In order to examine possible differences between each of the CTL, IFN, and KRT ALADIN scores in responders and non-responders, in responders and normal controls and in non-responders and normal controls, the inventors tested for differences among the three groups using a Kruskal-Wallis test, followed by Wilcoxon Rank Sum tests as implemented in the coin package in R. The inventors then examined the change between baseline and ALADIN scores at 12 weeks for responders using Wilcoxon Signed Rank test as implemented in the coin package in R. The inventors further tested for differences in the three scores between responders at 12 weeks and normal controls.

[3] = tested on: patients with moderate to severe AA; experiment: Open-label trial of oral ruxolitinib in 12 patients with moderate to severe AA: hair regrowth (SALT); type: in vivo, human
From the text: (§1) The study's primary efficacy endpoint was the proportion of responders at end of treatment, defined as those subjects achieving at least 50% regrowth compared to baseline assessed by the Severity of Alopecia Tool (SALT) score, a standardized, validated method for estimating hair loss in AA. Secondary efficacy endpoints included hair re-growth as a continuous variable. […] To assess response durability, responders were followed for 3 months after treatment was completed. Safety analysis was included as a secondary endpoint for all subjects who received at least one dose of ruxolitinib and was monitored as described at monthly visits.

[4] = tested on: patients with moderate to severe AA; experiment: Adverse events in ruxolitinib trial; details: in vivo
From the text: as §1
Adverse events were assessed at every monthly visit. Patients were also encouraged to contact the study center in the interim between visits if they developed new signs or symptoms of concern.

dermal sheath cells = experiment: CTL killing of dermal sheath cells; type: cell-based, mouse
[5] = tested on: C3H/HeJ grafted mice with established AA; experiment: Systemic treatment of established AA in grafted C3H/HeJ mice; type: in vivo, mouse
From the text: C3H/HeJ mouse strain (Jackson Laboratories, Bar Harbor, Me.) was used for all animal studies. Only female mice were used. Mouse recipients of alopecic skin grafts were aged 7-10 weeks at the time of grafting. For prevention experiments, drug administration began the day after grafting. […] For topical treatment studies, drug administration was initiated 20 weeks following grafting. All animal procedures were done according to protocols approved by the Columbia University Medical Center Institutional Animal Care and Use Committee.

[6] = tested on: patient with persistent moderate/severe AA; experiment: Oral tofacitinib in one patient with persistent moderate/severe AA (hair regrowth, safety)
[7] = tested on: C3H/HeJ mice with long-standing AA; experiment: Topical treatment of established AA in grafted C3H/HeJ mice; type: in vivo, mouse; details: applied to back skin
From the text: This experiment was repeated three times. […] NS, not significant. […] Scale bar, 100 μm. […] Scale bar, 200 μm.
Only female mice were used.

C3H/HeJ grafted mice = experiment: Prevention of AA in C3H/HeJ skin graft model, systemic treatment from time of grafting; type: in vivo, mouse; details: systemic administration from the time of grafting
From the text: IL-2 and IL-15 are well-known drivers of cytotoxic activity by IFN-γ-producing CD8+ effector T cells and NK cells and have been implicated in the induction and/or maintenance of autoreactive CD8+ T cells. To test the efficacy of IFN-γ- and γ c-targeted therapies in vivo, the inventors used the well-established graft model of AA, in which skin grafts from mice with spontaneous AA are transferred onto the backs of unaffected 10-week-old recipient C3H/HeJ mice. In this model, AA develops reliably in 95-100% of grafted recipients within 6-10 weeks, allowing us to test interventions aimed at either preventing or reversing disease.
C3H/HeJ mouse strain (Jackson Laboratories, Bar Harbor, Me.) was used for all animal studies. Only female mice were used. Mouse recipients of alopecic skin grafts were aged 7-10 weeks at the time of grafting. For prevention experiments, drug administration began the day after grafting. For systemic treatment studies, drug administration was initiated approximately 3 months after mice lost their hair. For topical treatment studies, drug administration was initiated 20 weeks following grafting. […]
For the prevention experiments, a time-to-event survival analysis for interval censored data was performed. […] Hair growth index was calculated.

[8] = tested on: CTL effectors from C3H/HeJ mice; experiment: IL-15 responses in cultured CTL effectors; type: cell-based, mouse
[9] = tested on: ALADIN IFN and CTL signatures; experiment: ALADIN scores of scalp biopsies in tofacitinib-treated AA patient; type: in vivo, human; details: baseline vs 4 weeks of treatment
Description: (§2) Punch biopsies of the scalp (FIG. 17) and blood draws were performed at baseline and after 4 weeks of treatment to monitor gene expression and biomarker changes. […] In addition, microarray analysis was performed on the skin biopsy samples.

CXCL10 = experiment: Serum CXCL10 ELISA in tofacitinib-treated AA patient; type: in vivo, human; details: baseline vs 4 weeks of treatment
Description: as §2

[10] = systemic therapy initiated 7 weeks after grafting

## N#CC[C@H](C1CCCC1)n1cc(-c2ncnc3[nH]ccc23)cn1 [ruxolitinib]
[1]; oral 20 mg BID for at least 3 months
  regrowth achieved: over 90%
[1]; oral, 20 mg twice daily
  time to near-complete hair regrowth: 3 to 5 months
[2]; all patients, baseline 8.30, p<0.004
  CTL score at week 12, overall: 1.51
[2]; all patients, baseline 31.08, p<0.004
  IFN score at week 12, overall: −0.37
[2]; all patients, baseline −39.36, p=0.054
  KRT score at week 12, overall: −15.02
[2]; baseline 9.37, p<0.008
  CTL score at week 12, responders only: 1.6
[2]; baseline 38.37, p<0.008
  IFN score at week 12, responders only: 0.24
[2]; baseline −37.84, p=0.039
  KRT score at week 12, responders only: −15.42
[2]; post-treatment biopsies
  earliest time decreased IFN and CTL scores were demonstrable after the initiation of treatment: 2 weeks
[3]; 20 mg PO twice daily, 3 to 6 months, nine of twelve patients
  proportion of patients achieving the primary outcome of at least 50% regrowth: 75%
[3]; baseline 65.8±28.0%
  mean SALT score at 3 months: 24.8±22.9%
[3]; baseline 65.8±28.0%, p<0.004
  mean SALT score at the end of 6 months of treatment: 7.3±13.5%
[3]; nine responding patients
  average hair regrowth at the end of treatment: 92%
[3]; responders
  reduction in hair loss from baseline, responders as a group: 92%
[4]; human
  URI/allergy symptoms: 9 episodes
[4]
  GI symptoms: mild GI symptoms
  UTI: one UTI
  acne or scalp folliculitis: Two patients developed lesions consistent with acne or scalp folliculitis
  bacterial skin infections: three minor bacterial skin infections (in the same patient)
  conjunctival hemorrhage: one conjunctival hemorrhage following a surgical procedure
  discontinuation of therapy: no patients required discontinuation of therapy
  hemoglobin: One patient developed lowered hemoglobin, which resolved with dose modification
  hepatic abnormalities: No hepatic abnormalities were observed
  platelet counts: No significant decline in platelet counts
  pneumonia: one mild pneumonia
  serious adverse effects: no serious adverse effects
  white blood cell counts: modest declines of white blood cell counts initially but levels remained within normal limits

## C[C@@H]1CCN(C(=O)CC#N)C[C@@H]1N(C)c1ncnc2[nH]ccc12 [tofacitinib]
Dermal sheath cells
  killing of dermal sheath cells: blocked
[5]; systemic therapy
  persistence of effects after the cessation of treatment: 2-3 months
[5]; [10]
  frequency of CD8+NKG2D+ T cells: reduced the frequency of CD8+NKG2D+ T cells
  hair regrowth: substantial hair regrowth all over the body
  histological markers: reversed histological markers
[6]; FIG. 16 left panel
  hair loss 8 weeks following cessation of treatment: Minimal hair loss
[6]; FIG. 16 right panel
  hair loss 16 weeks following cessation of treatment: almost complete loss of scalp hair
[6]; human, in vivo
  outcome after cessation of treatment: near-complete hair loss
[6]; oral 5 mg twice daily
  adverse events: no adverse events reported
  hair regrowth at month 1: Patchy regrowth
  laboratory abnormalities (complete blood count, complete metabolic panel, lipid profile): no laboratory abnormalities
  regrowth of eyebrows and eyelashes: Significant regrowth
  scalp hair regrowth 4 months after initiating treatment: nearly complete
  scalp hair regrowth after three months of treatment: 94%
  scalp hair regrowth after two months of treatment: 62.5%
[7]
  reversal of disease in treated lesions: highly effective in reversing disease in treated lesions
C3H/HeJ grafted mice
  AA development in grafted recipients: prevented the development of AA
  CD8+NKG2D+ T cells in the skin (infiltration, accumulation, expansion): prevented
[8]
  IL-15-induced upregulation of granzyme B and IFN-γ expression: blocked
[8]; cultured CTL effectors
  IL-15-triggered pSTAT5 activation: blocked
[9]
  IFN and CTL signatures (ALADIN): decreased by 4 weeks of treatment, although not to the level of normal controls
CXCL10
  serum levels of CXCL10: decreased after 4 weeks of treatment
